Measured values as given in patent US20220105051A1, “COMPOUNDS FOR INCREASING MHC-I EXPRESSION AND MODULATING HISTONE DEACETYLASE ACTIVITY” (Cava Healthcare Inc., priority 2019, published 2022).
Entries after “also recorded” stand apart in the source; their conditions may differ.

Target: T1, HDAC6 (Homo sapiens, UniProt Q9UBN7)
T1 construct: purchased BPS Biosciences
T1 sequence (Q9UBN7 1-1215): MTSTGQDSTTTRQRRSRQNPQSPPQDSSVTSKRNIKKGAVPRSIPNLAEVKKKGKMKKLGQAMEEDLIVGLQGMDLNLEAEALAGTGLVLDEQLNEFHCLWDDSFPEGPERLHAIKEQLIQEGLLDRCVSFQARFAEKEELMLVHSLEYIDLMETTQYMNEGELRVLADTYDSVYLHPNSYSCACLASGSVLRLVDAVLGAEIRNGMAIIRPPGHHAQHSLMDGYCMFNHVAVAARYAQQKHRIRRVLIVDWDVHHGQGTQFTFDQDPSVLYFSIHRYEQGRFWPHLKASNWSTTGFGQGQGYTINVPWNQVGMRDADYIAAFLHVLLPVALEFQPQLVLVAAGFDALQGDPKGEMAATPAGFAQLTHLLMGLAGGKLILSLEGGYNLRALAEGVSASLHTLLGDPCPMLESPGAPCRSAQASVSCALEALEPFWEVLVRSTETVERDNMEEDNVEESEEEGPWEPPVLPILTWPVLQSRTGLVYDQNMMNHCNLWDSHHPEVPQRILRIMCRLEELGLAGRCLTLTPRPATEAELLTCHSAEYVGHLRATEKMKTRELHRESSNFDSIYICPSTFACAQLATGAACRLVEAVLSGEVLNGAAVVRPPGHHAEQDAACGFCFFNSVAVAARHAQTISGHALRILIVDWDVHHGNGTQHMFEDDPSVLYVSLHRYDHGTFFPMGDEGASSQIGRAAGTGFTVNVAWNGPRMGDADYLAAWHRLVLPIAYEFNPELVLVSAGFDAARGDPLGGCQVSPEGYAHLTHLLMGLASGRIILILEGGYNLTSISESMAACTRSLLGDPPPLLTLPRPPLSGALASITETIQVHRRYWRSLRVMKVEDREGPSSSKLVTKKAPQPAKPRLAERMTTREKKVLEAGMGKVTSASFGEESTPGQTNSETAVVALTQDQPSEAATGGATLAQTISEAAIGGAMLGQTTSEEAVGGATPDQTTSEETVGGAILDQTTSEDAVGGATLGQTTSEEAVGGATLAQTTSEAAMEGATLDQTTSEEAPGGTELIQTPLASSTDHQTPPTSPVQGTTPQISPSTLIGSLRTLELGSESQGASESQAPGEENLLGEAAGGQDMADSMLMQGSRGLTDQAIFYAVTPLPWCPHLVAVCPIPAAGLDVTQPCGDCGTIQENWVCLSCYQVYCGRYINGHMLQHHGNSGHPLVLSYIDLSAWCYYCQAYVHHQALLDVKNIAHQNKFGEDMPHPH
Experiment: Individualized HDAC assay, HDAC6
Format: biochemical
Conditions: purified enzyme, 5 to 0.02 μM
Protocol: The activity of the curcuphenol analogues was assessed with purified HDAC enzymes from all classes I, II, and IV, as well as a select member of HDAC class III (SIRT1). HDACs 1-9 and SIRT1 were evaluated using HDAC Fluorogenic Assay Kits (BPS Biosciences). All assays were completed in black-sided clear-bottom 96 well plates (PerkinElmer), and all treatments were plated in triplicates. Treatment started at 5 μM and was two-fold diluted to a concentration 0.02 μM. The assays were measured using the Synergy HI hybrid reader (BioTek) and Gen5 software (BioTek), excitation was set to 360 nm and detection was measured at 450 nm with a gain of 100. Alternatively HDAC 10 and 11 (BPS Biosciences) were optimized for HDAC concentration using the HDAC-Glo™ I/II Assay and Screening System (Promega). Following optimization each HDAC was run following the Promega protocol in black-sided clear-bottomed 96 well plates in triplicates with same treatments listed above (PerkinElmer). Luminescence was read 30 minutes after HDAC-Glo™I/II reagent was added using the Synergy HI hybrid reader (BioTek) and Gen5 software (Bio-Tek). […] To calculate percent activity, the average of blank wells was subtracted from all treatment groups. The relative mean of activity of the HDAC being measured was determined and all wells that received treatment were divided this average, to give a percentage of activity.
To evaluate the effect of the compounds on specific HDACs, their activity was assessed with purified HDAC enzymes from all classes I, II, and IV, as well as a select member of HDAC class III (SIRT1). HDACs 1-9 and SIRT1 were evaluated using HDAC Fluorogenic Assay Kits (BPS Biosciences) following the manufacturer's recommendations. Compound treatment started at 5 μM and was two-fold diluted to a concentration 0.02 μM. […] The assays were measured using the Synergy HI hybrid reader (BioTek) and Gen5 software (Bio-Tek). […] To calculate the fold change in HDAC activity, the values from each treated well were divided by the relative mean of activity of the specific HDAC being measured.

Compound	HDAC6 activity	HDAC6 activity (listed as PO-3-97-1)
CC(C)=CCCCc1ccc(C)cc1O [P02-113]	no change in activity; also recorded: did not affect the activity; also recorded: unaffected	
COc1ccc(C(C)CCC=C(C)C)c(O)c1 (stereo not drawn) [P03-97-1]	no change in activity; also recorded: unaffected	did not affect the activity
